Assays:
[1] = cited from earlier work
[2] = Absorption of LuT2BET in 5% mannitol; format: physicochemical; details: 732 nm, 2 mM in 5% mannitol
Experimental: (§1) LuT2BET: The synthesis and chemical analysis of lutetium texaphyrin (LuT2BET, texaphyrin A2 of Tables A and B where M is lutetium) was provided in, for example, U.S. Pat. No. 5,622,946 and in PCT publication W095/10307. LuT2BET was dissolved in 5% mannitol at a 2 mM concentration. LuT2BET absorbs strongly in the far-red region of the electromagnetic spectrum, having a molar extinction coefficient of 23,000 M^-1 cm^-1 in this solution at 732 nm.

[3] = system: B16F10 melanotic melanoma murine cells; test: Confocal laser scanning (fluorescent) microscopy of lutetium texaphyrin in melanoma cells; format: cell-based; details: 20 μg/ml LuT2BET, 1 to 24 h
Experimental: Fluorescent Microscopy of Texaphyrin in Melanoma Cells
The present example provides results from fluorescent microscopy studies using lutetium texaphyrin (LuT2BET) incorporated into melanoma cells.
B16F10 melanotic melanoma murine cells as described in Example 2 were incubated with 20 μg/ml LuT2BET for 1 to 24 h in Waymouth's medium supplemented with 15% fetal bovine serum. The adherent cells were washed thoroughly with PBS (3×) and examined using confocal laser scanning microscopy.
(§2) Melanoma Cells: B16F10 melanotic melanoma murine cells were obtained from the University of California, San Francisco Cell Culture Facility. These cells are highly pigmented and metastatic in vivo. Cells were grown in Iscove's Modified Dulbeccos' Medium (Gibco, Grand Island, N.Y.) supplemented with 10% fetal bovine serum (JRH Biosciences, Woodland, Calif.) and penicillin/streptomycin (Sigma, St. Louis, Mo.).

carcinoma SMT-F = test: Pharmacological data with radiolabeled [^14 C]-LuT2BET in SMT-F bearing mice; format: in vivo; details: 8.64 μmol/kg
Experimental: A dose of 8.64 μmol/kg LuT2BET produced drug uptake values of 5.1 μg/g, 4.7 μg/g, and 2.8 μg/g at 3 h, 5 h, and 24 h after injection, yielding tumor:muscle ratios of 8.45:1, 10:1 and 7:1, respectively.

B16 melanoma = test: Biodistribution of LuT2BET in B16 melanoma-bearing mice (fluorescence of tissue extracts and plasma); format: in vivo, C57 mice
Experimental: The present example provides results from a study of the biodistribution of lutetium texaphyrin in melanoma-bearing mice. The biodistribution of LuT2BET was analyzed in C57 mice bearing B16 melanoma at 3 h, 5 h, and 24 h after an intravenous administration of 10 or 20 μmol/kg.
as §1, §2
Animals and Tumor Model: Inbred C57BL/6N female mice, (C57 mice) seven to eight weeks of age, were obtained from Simonsen Laboratories Inc. (Gilroy, Calif.). […] Tumor size, i.e., length (l), width (w), and height (h), was measured 3 times a week with a vernier caliper. Tumor volumes were calculated using the formula for a hemiellipsoid (Rockwell and Kallman, 1972): […]
Tissue Extraction Procedure: LuT2BET was administered via tail-vein injection at 10 or 20 μmol/kg. Tissues and plasma were analyzed at 3, 5 or 24 h post administration of the photosensitizer. […] Plasma samples (125 μL) were mixed with 10 mM TRITON X-100® and analyzed for texaphyrin content by fluorescence. […] Samples were then analyzed for lutetium texaphyrin content by fluorescence (excitation=450 nm, emission=700-800 nm). […] Texaphyrin accumulation is expressed as μg drug/g tissue (wet weight) or per mL plasma.
Statistical analysis: Values are expressed as mean±SD. […]

SMILES	tumor specificity ([1]; compared with an ideal detecting agent)	levels in normal brain (caudate) ([1]; in vivo)	molar extinction coefficient [2]	localization at dendritic processes ([3]; listed as Lutetium texaphyrin)	localization in melanosomes ([3]; listed as Lutetium texaphyrin)	localization at dendritic processes ([3]; listed as lutetium texaphyrin)	localization in melanosomes ([3]; listed as lutetium texaphyrin)	tumor:muscle ratio (x:1) (carcinoma SMT-F; 3 h)	drug uptake (tumor) (carcinoma SMT-F; 3 h after injection)	tumor:muscle ratio (x:1) (carcinoma SMT-F; 5 h)	drug uptake (tumor) (carcinoma SMT-F; 5 h after injection)	tumor:muscle ratio (x:1) (carcinoma SMT-F; 24 h)	drug uptake (tumor) (carcinoma SMT-F; 24 h after injection)	tumor:muscle ratio (x:1) (B16 melanoma; 10 μmol/kg i.v., 5 h)	tumor localizing capacity (B16 melanoma; mouse, in vivo)	uptake into B16 melanoma compared to carcinoma SMT-F (B16 melanoma; mouse, in vivo)
CN1CCc2ccc(O)cc2C(c2ccccc2)C1 (stereo not shown) [BZZ, 2,3,4,5-tetrahydro-3-methyl-5-phenyl-1H-3-benzazepin-7-ol]	significantly less tumor-specific than an ideal detecting agent	levels that may be toxic														
CC(=O)[O-].CC(=O)[O-].CCc1c(CC)c2cc3nc(cnc4cc(OCCOCCOCCOC)c(OCCOCCOCCOC)cc4ncc4nc(cc1[n-]2)C(CCCO)=C4C)C(C)=C3CCCO.O.[Lu+3] [LuT2BET]			23,000 M^-1 cm^-1	collect at the dendritic processes	highly concentrated in the melanosomes of melanoma cells	collects at the dendritic processes	highly concentrated in the melanosomes of melanotic melanoma cells	8.45	5.1 µg/g	10	4.7 µg/g	7	2.8 µg/g	15	good tumor localizing capacity	increased uptake

Reference: patent US6022526A, “Use of texaphyrins in detection of melanin and melanin metabolites diagnostic of melanotic melanoma” (Pharmacyclics, Inc., priority 1997, dated 2000)
